Where a name gives a salt, the structure may show the parent alone.
Biological target: T1, human GluN1/GluN2B NMDA receptors (Homo sapiens, UniProt Q05586+Q13224)
T1 construct: expressed in transfected cells
Experiment: Calcium flux (FLIPR) assay on cloned human NR1/GluN2B ion channels expressed in mammalian cells, standard assay
Assay type: cell-based
Conditions: glutamate ~EC40 and 10 μM glycine, stable cell line with Tet-On induced expression
Experimental: Effects of Test Articles on Cloned Human NR1/GluN2B Ion Channels Expressed in Mammalian Cells
NMDA receptors are ion channels that are highly permeable to Ca^2+ ions, rendering it possible to monitor NMDA receptor function using cell-based calcium flux assay. In this assay, co-agonists glutamate and glycine are added to cells heterologously expressing human GluN1/GluN2B NMDA receptors to initiate cellular Ca^2+ influx. The time course of the changes in intracellular calcium is measured using a fluorescent dye and a FLIPR (Fluorometric Imaging Plate Reader) device.
Twenty four hours before measurements, the expression of the NMDA receptors in the stable cell line is induced with Tet-On inducible system in the presence of a non-selective NMDA receptor blocker. On the day of the experiment, cell culture media is carefully washed and the cells are loaded with Calcium 5 Dye Kit (Molecular Devices) in dye loading buffer containing 137 mM NaCl, 4 mM KCl, 2 mM CaCl2, 0.5 mM MgCl2 (standard assay) or 1.5 mM MgCl2 (HTS assay), 10 mM HEPES and 5 mM D-glucose; pH 7.4. After 1 h incubation at the room temperature, the dye is washed away with the assay buffer (137 mM NaCl (standard assay) or 150 mM (HTS assay), 4 mM KCl (standard assay) or 3 mM (HTS assay), 2 mM CaC2, 0.01 mM EDTA, 10 mM HEPES and 5 mM D-glucose; pH 7.4) In the FLIPR TETRA reader, various concentrations of the test compounds are added to the cells for 5 min while fluorescence is monitored to detect potential agonist activity. Next, co-agonists, glutamate and glycine are added for another 5 minutes. The concentration of glutamate corresponding to ˜EC40 (standard assay) or EC40 (HTS assay) is used to maximize the assay's signal window and ability to detect NMDA receptor antagonists and negative allosteric modulators. A saturating concentration (10 μM) of glycine is also present in the assay. A non-selective NMDA receptor antagonist, (+)MK-801 is used as a positive control for antagonist activity. The fluorescent signal in the presence of test compounds is quantified and normalized to the signal defined by the appropriate control wells.

T1 sequence (Q13224 27-1484, other chains not shown): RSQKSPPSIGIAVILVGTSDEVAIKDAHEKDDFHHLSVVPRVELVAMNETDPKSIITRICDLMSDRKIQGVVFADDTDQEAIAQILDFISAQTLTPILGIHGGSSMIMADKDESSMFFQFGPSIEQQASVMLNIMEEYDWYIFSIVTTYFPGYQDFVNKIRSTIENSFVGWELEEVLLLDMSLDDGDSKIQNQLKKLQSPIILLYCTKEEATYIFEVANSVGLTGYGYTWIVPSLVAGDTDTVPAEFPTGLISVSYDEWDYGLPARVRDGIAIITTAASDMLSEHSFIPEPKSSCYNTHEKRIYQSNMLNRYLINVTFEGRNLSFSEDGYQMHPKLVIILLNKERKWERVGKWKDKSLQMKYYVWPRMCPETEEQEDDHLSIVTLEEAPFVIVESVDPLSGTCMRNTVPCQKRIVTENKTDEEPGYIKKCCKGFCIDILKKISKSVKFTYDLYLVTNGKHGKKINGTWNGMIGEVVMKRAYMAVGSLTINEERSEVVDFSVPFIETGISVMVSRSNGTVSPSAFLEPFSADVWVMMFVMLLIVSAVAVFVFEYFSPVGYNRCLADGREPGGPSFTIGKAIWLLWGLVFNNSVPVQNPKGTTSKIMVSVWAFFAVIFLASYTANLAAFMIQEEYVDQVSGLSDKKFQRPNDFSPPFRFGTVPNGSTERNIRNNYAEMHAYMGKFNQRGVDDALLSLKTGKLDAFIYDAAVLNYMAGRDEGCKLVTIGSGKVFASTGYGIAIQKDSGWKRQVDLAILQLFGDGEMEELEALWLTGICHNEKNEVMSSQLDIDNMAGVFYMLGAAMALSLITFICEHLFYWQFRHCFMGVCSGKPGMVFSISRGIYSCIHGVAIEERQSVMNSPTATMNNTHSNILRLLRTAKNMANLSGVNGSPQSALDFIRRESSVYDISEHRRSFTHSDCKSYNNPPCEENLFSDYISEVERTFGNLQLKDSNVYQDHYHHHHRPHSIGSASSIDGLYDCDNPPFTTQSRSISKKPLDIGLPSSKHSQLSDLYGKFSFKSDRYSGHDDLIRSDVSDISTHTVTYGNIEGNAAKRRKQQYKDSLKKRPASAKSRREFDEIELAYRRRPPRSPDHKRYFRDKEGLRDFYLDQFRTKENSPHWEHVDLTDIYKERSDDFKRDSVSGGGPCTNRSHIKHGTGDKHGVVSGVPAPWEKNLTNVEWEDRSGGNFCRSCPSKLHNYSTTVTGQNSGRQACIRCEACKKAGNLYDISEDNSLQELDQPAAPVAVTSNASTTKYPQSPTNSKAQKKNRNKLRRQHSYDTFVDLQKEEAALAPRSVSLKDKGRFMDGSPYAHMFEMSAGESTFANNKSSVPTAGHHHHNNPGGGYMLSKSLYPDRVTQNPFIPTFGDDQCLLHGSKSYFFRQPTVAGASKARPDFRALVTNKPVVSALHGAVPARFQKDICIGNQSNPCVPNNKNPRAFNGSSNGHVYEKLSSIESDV

IC50 | Structure (SMILES)
13 nM | CCC(=O)Cn1ncc2ncc(-c3ccc(Cl)s3)cc21 [Example 27, 1-[6-(5-Chloro-2-thienyl)pyrazolo[4,3-b]pyridin-1-yl]butan-2-one]
32 nM | CCC(=O)Cn1ncc2ncc(-c3ccc(F)cc3)cc21 [Example 28, 1-[6-(4-Fluorophenyl)pyrazolo[4,3-b]pyridin-1-yl]butan-2-one]
28 nM | CCC(=O)Cn1ncc2ncc(-c3cccc(F)c3)cc21 [Example 29, 1-[6-(3-Fluorophenyl)pyrazolo[4,3-b]pyridin-1-yl]butan-2-one]
27 nM | CCC(=O)Cn1ncc2ncc(-c3cccc(C(F)F)c3)cc21 [Example 30, 1-[6-[3-(Difluoromethyl)phenyl]pyrazolo[4,3-b]pyridin-1-yl]butan-2-one]
35 nM | CCC(=O)Cn1ncc2ncc(-c3cccc(C(C)(F)F)c3)cc21 [Example 31, 1-[6-[3-(1,1-Difluoroethyl)phenyl]pyrazolo[4,3-b]pyridin-1-yl]butan-2-one]
12 nM | CCC(=O)Cn1ncc2ncc(-c3ccc(F)c(C)c3)cc21 [Example 32, 1-[6-(4-Fluoro-3-methyl-phenyl)pyrazolo[4,3-b]pyridin-1-yl]butan-2-one Trifluoroacetate Salt]
46 nM | CCC(=O)Cn1ncc2ncc(-c3cccc(F)c3F)cc21 [Example 33, 1-[6-(2,3-Difluorophenyl)pyrazolo[4,3-b]pyridin-1-yl]butan-2-one]
17 nM | CCC(=O)Cn1ncc2ncc(-c3ccc(F)c(F)c3)cc21 [Example 34, 1-[6-(3,4-Difluorophenyl)pyrazolo[4,3-b]pyridin-1-yl]butan-2-one]
5 nM | CCC(=O)Cn1nc(F)c2ncc(-c3ccc(F)c(F)c3)cc21 [Example 35, 1-[6-(3,4-Difluorophenyl)-3-fluoro-pyrazolo[4,3-b]pyridin-1-yl]butan-2-one]
41 nM | CCC(=O)Cn1ncc2ncc(-c3ccc(F)c(C(C)(F)F)c3)cc21 [Example 37, 1-[6-[3-(1,1-Difluoroethyl)-4-fluoro-phenyl]pyrazolo[4,3-b]pyridin-1-yl]butan-2-one]
75 nM | CCC(=O)Cn1ncc2ncc(-c3ccc(F)c(C(F)(F)F)c3)cc21 [Example 39, 1-[6-[4-Fluoro-3-(trifluoromethyl)phenyl]pyrazolo[4,3-b]pyridin-1-yl]butan-2-one]
11 nM | CCC(=O)Cn1ncc2ncc(-c3ccc(F)c(OC(F)F)c3)cc21 [Example 40, 1-[6-[3-(Difluoromethoxy)-4-fluoro-phenyl]pyrazolo[4,3-b]pyridin-1-yl]butan-2-one]
21 nM | CCC(=O)Cn1ncc2ncc(-c3ccc(Cl)c(OC(F)F)c3)cc21 [Example 41, 1-[6-[4-Chloro-3-(difluoromethoxy)phenyl]pyrazolo[4,3-b]pyridin-1-yl]butan-2-one]
28 nM | CCC(=O)Cn1ncc2ncc(-c3ccc(F)c(F)c3F)cc21 [Example 43, 1-[6-(2,3,4-Trifluorophenyl)pyrazolo[4,3-b]pyridin-1-yl]butan-2-one]
89 nM | CC(C)C(=O)Cn1ncc2ncc(-c3ccccc3)cc21 [Example 44, 3-Methyl-1-(6-phenylpyrazolo[4,3-b]pyridin-1-yl)butan-2-one]
36 nM | CC(C)C(=O)Cn1ncc2ncc(-c3ccc(F)cc3)cc21 [Example 45, 1-[6-(4-Fluorophenyl)pyrazolo[4,3-b]pyridin-1-yl]-3-methyl-butan-2-one]
30 nM | CC(C)C(=O)Cn1ncc2ncc(-c3cccc(F)c3)cc21 [Example 46, 1-[6-(3-Fluorophenyl)pyrazolo[4,3-b]pyridin-1-yl]-3-methyl-butan-2-one]
23 nM | CC(C)C(=O)Cn1ncc2ncc(-c3cccc(C(F)F)c3)cc21 [Example 47, 1-[6-[3-(Difluoromethyl)phenyl]pyrazolo[4,3-b]pyridin-1-yl]-3-methyl-butan-2-one]
172 nM | CC(C)C(=O)Cn1ncc2ncc(-c3cccc(F)c3F)cc21 [Example 48, 1-[6-(2,3-Difluorophenyl)pyrazolo[4,3-b]pyridin-1-yl]-3-methyl-butan-2-one]
